Numbering of substitutions follows the chain as printed. Read-outs that look alike come from different tables or passages of the source.

The source of these data is article PMC3855964, “Cysteine-10 on 17β-Hydroxysteroid Dehydrogenase 1 Has Stabilizing Interactions in the Cofactor Binding Region and Renders Sensitivity to Sulfhydryl Modifying Chemicals” (International Journal of Cell Biology, 2013).

One assay deals with T1, human 17β-HSD1 (Homo sapiens, UniProt P14061).
T1 construct: expressed in transfected cells; host or cells: HEK-293 (transient calcium phosphate transfection; cell lysates used)
T1 sequence (P14061 1-328): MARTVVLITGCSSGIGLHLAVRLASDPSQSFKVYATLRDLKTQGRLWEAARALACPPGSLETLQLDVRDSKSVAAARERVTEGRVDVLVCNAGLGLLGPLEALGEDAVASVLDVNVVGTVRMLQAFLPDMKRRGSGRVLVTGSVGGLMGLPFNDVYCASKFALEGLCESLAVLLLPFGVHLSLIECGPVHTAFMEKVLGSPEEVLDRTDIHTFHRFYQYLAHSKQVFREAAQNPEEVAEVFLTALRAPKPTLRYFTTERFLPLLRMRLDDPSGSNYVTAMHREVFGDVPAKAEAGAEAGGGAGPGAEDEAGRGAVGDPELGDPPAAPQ
The experiment in a line: 17β-HSD1 reductase activity (estrone to estradiol) in lysates of transfected HEK-293 cells. It is filed as biochemical. The conditions noted are these: for IC50 for 17β-HSD1 compared with those obtained for 11β-HSD2: simultaneous incubation with substrate and inhibitor, 11β-HSD2 values from ref 20. Here is the method:
(§1) To determine 17β-HSD1 activity, HEK-293 cells were transfected by the calcium phosphate precipitation method. Cells were harvested 48 h after transfection, washed twice with phosphate-buffered saline (PBS), and centrifuged for 4 min at 150 ×g. Supernatants were removed and the cell pellets were quick-frozen in a dry ice-ethanol bath and stored at −80°C. The reductase activity of 17β-HSD1 was measured by incubation of cell lysates for 10 min at 37°C in the presence of 200 nM radiolabeled estrone and 400 μM NADPH in a reaction buffer containing 20% glycerol, 1 mM EDTA, and 50 mM potassium phosphate, pH 7.4. Inhibitors were diluted from stock solutions in dimethylsulfoxide (DMSO) and immediately used in the assays.
(§2) For determination of enzyme kinetics, estrone concentrations ranging from 10 to 800 nM were used. Data (mean ± SD) were obtained from three independent experiments and were calculated using the Data Analysis Toolbox (Elsevier MDL, Allschwil, Switzerland).

Assay [1] deals with T2, Cys^10Ser mutant 17β-HSD1 (Homo sapiens, UniProt P14061, C11S).
T2 construct: expressed in transfected cells; host or cells: HEK-293 (transient calcium phosphate transfection; cell lysates used)
T2 sequence (P14061 1-328 C11S): T1 sequence (P14061 1-328) with C11S
In words: Cys^10Ser mutant 17β-HSD1 reductase activity (estrone to estradiol) in lysates of transfected HEK-293 cells. In kind it is biochemical. Here is the method:
In order to facilitate detection, an octahistidine tag was added to the C-terminus of human 17β-HSD1 by PCR amplification using oligonucleotide primers containing the tag-coding sequence (forward primer 5′-[…]-3′, reverse primer 5′-[…]-3′). […] The substitution of Cys^10 to serine was introduced into the C-terminal histidine-tagged 17β-HSD1 cDNA in Bluescript vector by site-directed mutagenesis using the forward primer 5′-[…]-3′ and the reverse primer 5′-[…]-3′ according to the Quick Change mutagenesis kit (Stratagene, Amsterdam, The Netherlands), followed by subsequent recloning into pcDNA3.1 expression plasmid.
as §1, §2

The mark [2] stands for this setting: simultaneous incubation of lysates with 200 nM estrone and inhibitor, 400 μM NADPH, 10 min, 37°C, read-out: IC50.

Turning to `CN(C)C(=S)SSC(=S)N(C)C` [thiram], at human 17β-HSD1 (setting [2]), the IC50 was determined as 21 ± 4 µM. The “IC50 for 17β-HSD1 compared with those obtained for 11β-HSD2” value against human 17β-HSD1 was “about two orders of magnitude higher”.

Consider `CCN1C(=O)C=CC1=O` [NEM, N-ethylmaleimide], for which the “17β-HSD1 activity after preincubation with inhibitor” value at human 17β-HSD1 (preincubation of lysates with 20 μM NEM for 1 h prior to the addition of estrone, data not shown) was “completely abolished”. Further, on human 17β-HSD1 (preincubation with NADPH for 15 min, NEM 60 μM, estrone 200 nM, NADPH 400 μM, concentration dependent), the “effect of preincubation with NADPH on inhibition” value is listed as “protected from inhibition”. On human 17β-HSD1 (setting [2]), the IC50 was determined as 22 ± 6 µM. The “inhibition of wild-type enzyme relative to mutant Cys^10Ser” value in assay [1] (cell lysates, data not shown) was “approximately two times stronger”.

Consider `S=C(S)NCCNC(=S)S` [zineb], for which, on human 17β-HSD1, the IC50 was determined as 24 ± 3 µM and the “IC50 for 17β-HSD1 compared with those obtained for 11β-HSD2” value is given as “about two orders of magnitude higher”.

Consider `CCN(CC)C(=S)SSC(=S)N(CC)CC` [disulfiram], for which, on human 17β-HSD1 (setting [2]), the IC50 turned out to be 8 ± 1 µM. Also, the “IC50 for 17β-HSD1 compared with those obtained for 11β-HSD2” value against human 17β-HSD1 was “about two orders of magnitude higher”.

Consider `C[C@]12CC[C@@H]3c4ccc(O)cc4CC[C@H]3[C@@H]1CCC2=O` [estrone], for which the K m on human 17β-HSD1 (wild-type, estrone 10 to 800 nM, 400 μM NADPH) was 43 ± 6 nM; in assay [1] (Cys^10Ser mutant, estrone 10 to 800 nM, 400 μM NADPH) it was 65 ± 3 nM. Also, the V max came to 110 ± 5 nmol/h/mg at human 17β-HSD1 (wild-type, estrone 10 to 800 nM, 400 μM NADPH, normalized to protein expression) and 124 ± 3 nmol/h/mg in assay [1] (Cys^10Ser mutant, estrone 10 to 800 nM, 400 μM NADPH, normalized to protein expression).

In the case of maneb, the IC50 at human 17β-HSD1 (setting [2]) came to 25 ± 3 µM. In addition, at human 17β-HSD1, the “IC50 for 17β-HSD1 compared with those obtained for 11β-HSD2” value is “about two orders of magnitude higher”.
